# Test system: Human Heme Oxygenase-1 (HMOX-1)
# Experiment: ELISA assay to measure human heme oxygenase-1 (HMOX-1) in HepG2 lysate
# Format: cell-based
# Details: fold change of human HMOX1 protein levels relative to DMSO control, HepG2
# Summary of the method: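 HO-1 protein quantified by chemiluminescent sandwich ELISA against a 2-fold standard series starting at 20 ng/ml. Samples were 1:20-diluted HepG2 lysates made in Triton X-100/EDTA buffer with protease inhibitors. Capture antibody coated at 8 μg/ml, detection antibody used at 200 ng/ml, room-temperature (20 °C) steps.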
row,SMILES,Maximum Fold induction
1,"Cn1c(Nc2nc3ccc(C4CC4)cc3o2)nc2cc(C(=O)O)ccc21 [Example 115, 2-((6-cyclopropylbenzo[d]oxazol-2-yl)amino)-1-methyl-1H-benzo[d]imidazole-5-carboxylic acid]",71
2,"COCCNC(=O)c1ccc2c(c1)nc(Nc1nc3ccc(C4CC4)cc3o1)n2C [Example 116, 2-((6-cyclopropylbenzo[d]oxazol-2-yl)amino)-N-(2-methoxyethyl)-1-methyl-1H-benzo[d]imidazole-5-carboxamide]",32-38
3,"Cn1c(Nc2nc3cccc(C(F)(F)F)c3o2)nc2cc(C(=O)NCCOCCO)ccc21 [Example 117, N-(2-(2-hydroxyethoxy)ethyl)-1-methyl-2-((7-(trifluoromethyl)benzo[d]oxazol-2-yl)amino)-1H-benzo[d]imidazole-5-carboxamide]",38
4,"Cn1c(Nc2nc3cc(C(=O)NCCOCCO)ccc3o2)nc2ccccc21 [Example 118, N-(2-(2-hydroxyethoxy)ethyl)-2-((1-methyl-1H-benzo[d]imidazol-2-yl)amino)benzo[d]oxazole-5-carboxamide]",24
5,"COCCONC(=O)c1ccc2c(c1)nc(Nc1nc3ccccc3o1)n2C [Example 119, 2-(benzo[d]oxazol-2-ylamino)-N-(2-methoxyethoxy)-1-methyl-1H-benzo[d]imidazole-5-carboxamide]",47-65
6,"CC(O)CONC(=O)c1ccc2c(c1)nc(Nc1nc3ccccc3o1)n2C (stereo not shown) [Example 120, 2-(benzo[d]oxazol-2-ylamino)-N-(2-hydroxypropoxy)-1-methyl-1H-benzo[d]imidazole-5-carboxamide]",26
7,"CN(C)CC(=O)NCCONC(=O)c1ccc2c(c1)nc(Nc1nc3ccccc3o1)n2C [Example 121, 2-(benzo[d]oxazol-2-ylamino)-N-(2-(2-(dimethylamino)acetamido)ethoxy)-1-methyl-1H-benzo[d]imidazole-5-carboxamide]",22-23
8,"CN(C)CCONC(=O)c1ccc2c(c1)nc(Nc1nc3ccc(C(F)(F)F)cc3o1)n2C [Example 122, N-(2-(dimethylamino)ethoxy)-1-methyl-2-((6-(trifluoromethyl)benzo[d]oxazol-2-yl)amino)-1H-benzo[d]imidazole-5-carboxamide]",51-67
9,"CN(C)CCONC(=O)c1ccc2c(c1)nc(Nc1nc3ccccc3o1)n2C [Example 123, 2-(benzo[d]oxazol-2-ylamino)-N-(2-(dimethylamino)ethoxy)-1-methyl-1H-benzo[d]imidazole-5-carboxamide]",22
10,"COCCONC(=O)c1ccc2c(c1)nc(Nc1nc3ccc(C(F)(F)F)cc3o1)n2C [Example 124, N-(2-methoxyethoxy)-1-methyl-2-((6-(trifluoromethyl)benzo[d]oxazol-2-yl)amino)-1H-benzo[d]imidazole-5-carboxamide]",31-52
11,"Cn1c(Nc2nc3ccc(C(F)(F)F)cc3o2)nc2cc(C(=O)NOCCO)ccc21 [Example 125, N-(2-hydroxyethoxy)-1-methyl-2-((6-(trifluoromethyl)benzo[d]oxazol-2-yl)amino)-1H-benzo[d]imidazole-5-carboxamide]",32-59
12,"Cn1c(Nc2nc3ccc(OC(F)(F)F)cc3o2)nc2cc(C(=O)NOCCO)ccc21 [Example 126, N-(2-hydroxyethoxy)-1-methyl-2-((6-(trifluoromethoxy)benzo[d]oxazol-2-yl)amino)-1H-benzo[d]imidazole-5-carboxamide]",33-37
13,"COCCONC(=O)c1ccc2c(c1)nc(Nc1nc3ccc(OC(F)(F)F)cc3o1)n2C [Example 127, N-(2-methoxyethoxy)-1-methyl-2-((6-(trifluoromethoxy)benzo[d]oxazol-2-yl)amino)-1H-benzo[d]imidazole-5-carboxamide]",27-36
14,"COCCOc1ccc2nc(Nc3nc4cc(C(=O)NOCCO)ccc4n3C)oc2c1 [Example 128, N-(2-hydroxyethoxy)-2-((6-(2-methoxyethoxy)benzo[d]oxazol-2-yl)amino)-1-methyl-1H-benzo[d]imidazole-5-carboxamide]",48-75
15,"Cn1c(Nc2nc3ccc(OCCO)cc3o2)nc2cc(C(=O)NOCCO)ccc21 [Example 129, N-(2-hydroxyethoxy)-2-((6-(2-hydroxyethoxy)benzo[d]oxazol-2-yl)amino)-1-methyl-1H-benzo[d]imidazole-5-carboxamide]",54-58
16,"Cn1c(Nc2nc3cc(F)c(C(F)(F)F)cc3o2)nc2cc(C(=O)NOCCO)ccc21 [Example 130, 2-((5-fluoro-6-(trifluoromethyl)benzo[d]oxazol-2-yl)amino)-N-(2-hydroxyethoxy)-1-methyl-1H-benzo[d]imidazole-5-carboxamide]",42
17,"CC1CCc2nc(Nc3nc4cc(C(=O)NOCCO)ccc4n3C)sc2C1 (stereo not shown) [Example 131, N-(2-hydroxyethoxy)-1-methyl-2-((6-methyl-4,5,6,7-tetrahydrobenzo[d]thiazol-2-yl)amino)-1H-benzo[d]imidazole-5-carboxamide]",35-62
18,"COCCONC(=O)c1ccc2c(c1)nc(Nc1nc3ccc(C(C)=O)cc3o1)n2C [Example 132, 2-((6-acetylbenzo[d]oxazol-2-yl)amino)-N-(2-methoxyethoxy)-1-methyl-1H-benzo[d]imidazole-5-carboxamide]",39
19,"Cn1c(Nc2nc3ccc(C(C)(C)O)cc3o2)nc2cc(C(=O)NCCO)ccc21 [Example 133, N-(2-hydroxyethyl)-2-((6-(2-hydroxypropan-2-yl)benzo[d]oxazol-2-yl)amino)-1-methyl-1H-benzo[d]imidazole-5-carboxamide]",17
20,"Cn1c(Nc2nc3ccc(-c4cscn4)cc3o2)nc2cc(C(=O)NCCOCCO)ccc21 [Example 134, N-(2-(2-hydroxyethoxy)ethyl)-1-methyl-2-((6-(thiazol-4-yl)benzo[d]oxazol-2-yl)amino)-1H-benzo[d]imidazole-5-carboxamide]",42-70
21,"CN1CC(c2ccc3nc(Nc4nc5cc(C(=O)NCCOCCO)ccc5n4C)oc3c2)OC1=O (stereo not shown) [Example 135, N-(2-(2-hydroxyethoxy)ethyl)-1-methyl-2-((6-(3-methyl-2-oxooxazolidin-5-yl)benzo[d]oxazol-2-yl)amino)-1H-benzo[d]imidazole-5-carboxamide]",1
22,"Cn1c(Nc2nc3ccc(N4CCOCC4)cc3o2)nc2cc(C(=O)NCCOCCO)ccc21 [Example 136, N-(2-(2-hydroxyethoxy)ethyl)-1-methyl-2-((6-morpholinobenzo[d]oxazol-2-yl)amino)-1H-benzo[d]imidazole-5-carboxamide]",36
23,"Cn1c(Nc2nc3ccc(N4CCCC4)cc3o2)nc2cc(C(=O)NCCOCCO)ccc21 [Example 137, N-(2-(2-hydroxyethoxy)ethyl)-1-methyl-2-((6-(pyrrolidin-1-yl)benzo[d]oxazol-2-yl)amino)-1H-benzo[d]imidazole-5-carboxamide]",24-70
24,"Cn1c(Nc2nc3ccc(OC4CCOCC4)cc3o2)nc2cc(C(=O)NCCOCCO)ccc21 [Example 138, N-(2-(2-hydroxyethoxy)ethyl)-1-methyl-2-((6-((tetrahydro-2H-pyran-4-yl)oxy)benzo[d]oxazol-2-yl)amino)-1H-benzo[d]imidazole-5-carboxamide]",20
25,"Cn1c(Nc2nc3ccccc3o2)nc2cc(C(=O)C(F)(F)F)ccc21 [Example 139, 1-(2-(benzo[d]oxazol-2-ylamino)-1-methyl-1H-benzo[d]imidazol-5-yl)-2,2,2-trifluoroethan-1-one]",21
26,"Cn1c(Nc2nc3ccccc3o2)nc2cc(/C(=N/O)C(F)(F)F)ccc21 [Example 140, (Z)-1-(2-(benzo[d]oxazol-2-ylamino)-1-methyl-1H-benzo[d]imidazol-5-yl)-2,2,2-trifluoroethan-1-one oxime]",19
27,"Cn1c(Nc2nc3ccccc3o2)nc2cc(C(N)C(F)(F)F)ccc21 (stereo not shown) [Example 141, N-(5-(1-amino-2,2,2-trifluoroethyl)-1-methyl-1H-benzo[d]imidazol-2-yl)benzo[d]oxazol-2-amine]",22
28,"Cn1c(Nc2nc3ccccc3o2)nc2cc(C(O)C(F)(F)F)ccc21 (stereo not shown) [Example 142, 1-(2-(benzo[d]oxazol-2-ylamino)-1-methyl-1H-benzo[d]imidazol-5-yl)-2,2,2-trifluoroethan-1-ol]",27

# Reference: US20240051952A1, “HMOX1 INDUCERS” (Mitobridge Inc., priority 2019, published 2024)
